Measured values as given in PMC12298624, “Anti-Infective Properties, Cytotoxicity, and In Silico ADME Parameters of Novel 4′-(Piperazin-1-yl)benzanilides” (Pharmaceuticals, 2025).
Where two headings read alike, the source gives them in different places.

What was measured:
P. falciparum NF54 [1] = test system: P. falciparum NF54; design: method as in PMID 34832891, PMID 36558954; settings: Figure 1, earlier studies; ref [12],[13]; read-out: PfNF54 IC50; cited from earlier work
B. subtilis 168a = assay: MIC/MBC microbroth dilution (EUCAST); assay type: cell-based, Bacillus subtilis; settings: Bacillus subtilis, 168A; for MIC: read-out: MIC
Method: (§1) Minimum inhibitory concentrations (MIC values) were obtained using the microbroth dilution method as stated in the EUCAST guidelines. Tests were conducted on cation adjusted Mueller–Hinton broth (caMHB) or agar (caMHA). These were prepared and stored following the manufacturer’s guidelines. Biological organisms were prepared via growth on either Luria–Bertani (LB) or cation adjusted Mueller–Hinton agar plates. These were grown for 24 h at 37 °C, except for Micrococcus luteus where MICs took longer to grow and as a consequence were read after 48 h once a clear positive control could be observed. For the MIC experiment, the bacteria were prepared using the McFarland 0.5 standard and diluted 1 in 100 or 1 in 10 in caMHB following EUCAST and CSLI guidelines for the preparation of bacteria. Testing of the compounds using the microbroth dilution method took place in 96-well plates. Serial 2-fold dilutions of compounds in caMHB covering a range from 256 µg/mL to 0.25 µg/mL were prepared. Bacteria preparations (McFarland) were added to the compound dilutions, further halving the compound concentrations. The plate was then incubated for 18 h at 37 °C. Controls for the MIC experiments included a bacterial growth (positive) control of bacteria and caMHB only and a media only (negative) control. After incubation, the plates were read, whereby the positive control of bacteria was visible and the negative control was clear of contamination. The last clear well, where there is no growth of bacteria, was counted as the MIC value. […] The lowest concentration without any bacterial growth was counted as the MBC value. The following pathogens were used: Pseudomonas aeruginosa NCTC 13437, Escherichia coli NCTC 13353, Bacillus subtilis 168a, Serratia marcescens NCTC 9940, Micrococcus luteus ATCC 10240, Staphylococcus aureus JE2 USA 300, Acinetobacter baumannii ATCC 19606, and Klebsiella pneumoniae ATCC 700603. A concentration range of 256 µg/mL to 0.25 µg/mL of a combination of ciprofloxacin and meropenem against E. coli 25922 was used as an antibiotic control to ensure correct dilution and performance of the assay.

[2] = Parallel artificial membrane permeability assay (PAMPA); settings: PAMPA, PBS pH 7.4, 200 µM, 5 h, room temperature; for Papp at 5 h, 200 µM: pH 7.4, Pe
Method: With the high-throughput PAMPA the newly synthesized compounds were tested for their passive permeability through cell membranes without the influence of efflux pumps or transporter proteins. The assay was performed using a Corning® Gentest^TM Precoated PAMPA Plate System (Corning, Glendale, AZ, USA) with 96-well polystyrene plates. The bottom of the acceptor plate consists of a porous membrane, whereby the pores are lined with a lipid–oil–lipid triple layer. Stock solutions of each test compound at 10 mM were prepared in DMSO or methanol and diluted with phosphate-buffered saline (PBS at a pH of 7.4) to a final concentration of 200 µM. […] The donor plate (bottom plate) was filled with the compound solutions, whereby all compounds were tested in quadruplicates. Each well of the acceptor plate (top plate) was filled with PBS buffer. Donor and acceptor plates were combined and incubated at room temperature for 5 h. After that, the plates were separated and 150 µL of each well of both plates were transferred to 96-well UV plates (Greiner Bio-One). Absorption at different wavelengths covering a range from 200 to 300 nm was measured using a SpectraMax M3 UV plate reader. […] The plates were analyzed at the wavelength where the R2 value of the calibration curve was higher than 0.99 [47].
Recovery of compounds from donor and acceptor wells (mass retention) was calculated as shown in the equation below. Data were only accepted when recovery exceeded 70%. The equation is as follows:(3) R=1−[cDt×VD+cAt×VA]/(c0×VD) where

[3] = Resazurin-based in vitro cytotoxicity with L-6 cells; assay type: cell-based, rat; settings: rat
Method: Serial drug dilutions of eleven 3-fold dilution steps covering a range from 100 to 0.002 µg/mL were prepared. After 70 h of incubation, the plates were inspected under an inverted microscope to assure growth of the controls and sterile conditions. […] The plates were read with a Spectramax Gemini XS microplate fluorometer (Molecular Devices Cooperation, Sunnyvale, CA, USA) using an excitation wavelength of 536 nm and an emission wavelength of 588 nm. IC50 values were calculated by linear regression from the sigmoidal dose–inhibition curves using SoftmaxPro software Version 8.2.1 (Molecular Devices Cooperation, Sunnyvale, CA, USA). Podophyllotoxin (Sigma P4405) was used as control.

A. baumannii ATCC 19606 = assay: MIC/MBC microbroth dilution (EUCAST); assay type: cell-based, Acinetobacter baumannii; settings: Acinetobacter baumannii; for MBC: ATCC19606; for MIC: ATCC19606, read-out: MIC
Method: as §1

M. luteus ATCC 10240 = assay: MIC/MBC microbroth dilution (EUCAST); assay type: cell-based, Micrococcus luteus; settings: for MBC: read-out: MBC
Method: as §1

E. coli NCTC 13353 = assay: MIC/MBC microbroth dilution (EUCAST); assay type: cell-based, Escherichia coli; settings: Escherichia coli; for MBC: NCTC13353; for MIC: NCTC13353, read-out: MIC
Method: as §1

P. falciparum NF54 [4] = assay: In vitro microplate assay against P. falciparum NF54 (3H-hypoxanthine incorporation); assay type: cell-based, Plasmodium falciparum; settings: Plasmodium falciparum, NF54, chloroquine-sensitive strain NF54, erythrocytic stages; read-out: P.f.NF54 IC50
Method: Serial drug dilutions of eleven 3-fold dilution steps covering a range from 100 to 0.002 µg/mL were prepared. […] After 48 h of incubation time, 0.05 mL of ^3H-hypoxanthine (=0.5 µCi) was added to each well of the plate. The plates were incubated for a further 24 h under the same conditions. Plates were then harvested using a BetaplateTM cell harvester (Wallac, Zurich, Switzerland). Red blood cells were transferred onto a glass fiber filter and then washed with distilled aqua demin. The dried filters were inserted into a plastic foil with 10 mL of scintillation fluid and counted in a BetaplateTM liquid scintillation counter (Wallac, Zurich, Switzerland). IC50 values were calculated from sigmoidal inhibition curves by linear regression using Microsoft Excel. […] Louis, MO, USA) was used as control.

P. aeruginosa NCTC 13437 = assay: MIC/MBC microbroth dilution (EUCAST); assay type: cell-based; settings: Pseudomonas aeruginosa, NCTC13437
Method: as §1

S. marcescens NCTC 9940 = assay: MIC/MBC microbroth dilution (EUCAST); assay type: cell-based; settings: Serratia marcescens, NCTC9940
Method: as §1

S. aureus JE2 USA 300 = assay: MIC/MBC microbroth dilution (EUCAST); assay type: cell-based; settings: Staphylococcus aureus, USA300, S. aureus JE2 USA 300
Method: as §1

[5] = test system: K. pneumoniae ATCC 700603; assay: MIC/MBC microbroth dilution (EUCAST); assay type: cell-based; settings: Klebsiella pneumoniae, ATCC700603
Method: as §1

[6] = Resazurin-based in vitro cytotoxicity with HepG2 cells; assay type: cell-based, human; settings: HepG2 cells; human hepatocarcinoma cells, 48 h
Method: The HepG2 cells were washed with DPBS (Dulbecco’s PBS without calcium and magnesium, Gibco, Cat #21600-044) and trypsinized with trypsin solution in DPBS. Trypsinization was stopped by adding culture medium, and after being stained with Trypan Blue (SORS Ukraine) cells were counted using a counting chamber (Hausser Scientific, Cat #3500). The cell suspension was placed in a falcon tube containing plating medium DMEM/High glucose with 1% fetal bovine serum, 100 units/mL penicillin, and 100 µg/mL streptomycin. Cells at a density of 250,000 cells/mL were seeded in sterile 384-well plates (Greiner Bio-One, Cat #781091) in a volume of […] and incubated at 37 °C and 5% CO2. Serial dilutions of ten 3-fold dilution steps of test and reference compounds covering a range from 100.0 to 0.005 µM were added to the wells, followed by incubation at 37 °C and 5% CO2 for 48 h. Then, resazurin (50 µM final concentration) was added and plates were incubated for another 3 h. The plates were read with a SpectraMax microplate reader (Molecular Devices Cooperation, Sunnyvale, CA, USA)) using an extinction wavelength of 555 nm and an emission wavelength of 570 nm. IC50 values were calculated using GraphPad Prism 9.0 charting software. Doxorubicin (Sigma Aldrich D1515) was used as control.

[7] = Micrococcus luteus, ATCC10240, M. luteus ATCC 10240, read-out: MIC
[8] = Micrococcus luteus, ATCC10240, M. luteus ATCC 10240

MIC (B. subtilis 168a) [µg/mL] | Papp at 5 h, 200 µM [2] [×10⁻⁶ cm/s] | MIC (A. baumannii ATCC 19606) [µg/mL] | MIC (M. luteus ATCC 10240; [7]) [µg/mL] | MIC (E. coli NCTC 13353) [µg/mL] | IC50 (P. falciparum NF54 [4]) [µM] | MIC (P. aeruginosa NCTC 13437) [µg/mL] | MIC (S. marcescens NCTC 9940) [µg/mL] | MIC (S. aureus JE2 USA 300) [µg/mL] | MIC [5] [µg/mL] | SMILES | MBC (B. subtilis 168a) [µg/mL] | IC50 at 70 h [3] [µM] | MBC (A. baumannii ATCC 19606) [µg/mL] | MBC (E. coli NCTC 13353) [µg/mL] | MBC (P. aeruginosa NCTC 13437) [µg/mL] | MBC (S. marcescens NCTC 9940) [µg/mL] | MBC (S. aureus JE2 USA 300) [µg/mL] | MBC [5] [µg/mL] | IC50 at 48 h [6] [µM] | MBC (M. luteus ATCC 10240; [8]) [µg/mL] | other results
 |  |  |  |  |  |  |  |  |  | CC(C)(C)C(=O)N1CCN(c2ccc(NC(=O)c3cccc(C(F)(F)F)c3Oc3ccc(F)cc3)cc2)CC1 [derivate II] |  |  |  |  |  |  |  |  |  |  | IC50 (P. falciparum NF54 [1]): 0.58 µM
128 | 7.67 | 256 | 16 to 64 | > 256 | 2.33 | > 256 | > 256 | 32 | 256 | O=C(Nc1ccc(N2CCNCC2)cc1)c1ccccc1Oc1ccccc1 [Compound 64, 2-Phenoxy-N-[4-(piperazin-1-yl)phenyl]benzamide] | 256 | 40.6 | > 256 | > 256 | > 256 | > 256 | 64 | > 256 | 12.3 |  | MIC (M. luteus ATCC 10240; M. luteus ATCC 10240): 32 µg/mL
 |  |  |  |  |  |  |  |  |  | CC(C)(C)OC(=O)N1CCN(c2ccc(NC(=O)c3cccc(C(F)(F)F)c3Oc3ccc(F)cc3)cc2)CC1 [derivate I] |  |  |  |  |  |  |  |  |  |  | IC50 (P. falciparum NF54 [1]): 0.27 µM
256 | 8.36 | 256 | 128 | > 256 | 4.1 | > 256 | > 256 | 128 | 256 | O=C(Nc1ccc(N2CCNCC2)cc1)c1cccc([N+](=O)[O-])c1Oc1ccc(F)cc1 [Compound 61, 2-(4-Fluorophenoxy)-3-nitro-N-[4-(piperazin-1-yl)phenyl]benzamide] | > 256 | 43.8 | > 256 | > 256 | > 256 | > 256 | > 256 | > 256 | 29.8 | 128 | 
128 | 6.51 | 256 | 128 | > 256 | 1.66 | > 256 | > 256 | 128 | 256 | O=C(Nc1ccc(N2CCNCC2)cc1)c1cccc(C(F)(F)F)c1Sc1ccc(F)cc1 [Compound 62, 2-[(4-Fluorophenyl)sulfanyl]-N-[4-(piperazin-1-yl)phenyl]-3-(trifluoromethyl)benz-amide] | 256 | 13.1 | > 256 | > 256 | > 256 | > 256 | 128 | 256 | 9.3 | 128 | Pe [2]: 4.41 10^−6 cm/s
256 | 10.4 | 256 | 256 | > 256 | 81.1 | > 256 | > 256 | > 256 | > 256 | O=C(c1cccc(C(F)(F)F)c1Oc1ccc(F)cc1)N1CCOCC1 [Compound 51, [2-(4-Fluorophenoxy)-3-(trifluoromethyl)phenyl](morpholin-4-yl)methanon] | > 256 | 154 | 256 | > 256 | > 256 | > 256 | > 256 | > 256 | > 100 | 128 | 
256 | 8.5 | 256 | 256 | 256 | 55.2 | 256 | > 256 | > 256 | > 256 | CN1CCN(C(=O)c2cccc(C(F)(F)F)c2Oc2ccc(F)cc2)CC1 [Compound 49, [2-(4-Fluorophenoxy)-3-(trifluoromethyl)phenyl](4-methylpiperazin-1-yl)methanon] | > 256 | 137 | > 256 | > 256 | > 256 | > 256 | > 256 | > 256 | > 100 | 256 | 
128 | 4.98 | 256 | 128 | > 256 | 3.81 | > 256 | > 256 | 128 | 256 | O=C(Nc1ccc(N2CCNCC2)cc1)c1cccc(C(F)(F)F)c1Oc1ccccc1 [Compound 58, 2-Phenoxy-N-[4-(piperazin-1-yl)phenyl]-3-(trifluoromethyl)benzamide] | 256 | 25.9 | > 256 | > 256 | > 256 | > 256 | 128 | 256 | 5.8 | 128 | 
